# According to PubChem BioAssay AID602191 (Broad Institute, 2012):
# The source made the active and inactive calls.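 Rule for the calls: active = fitted curve reaches 40% activation at a concentration no higher than the top valid tested dose; inconclusive = flat fit between 30% and 70% activation, or poor fit; inactive = uptake decrease, flat fit within 30% of zero, the rest.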 Residues, ends and D or L forms follow the SMILES beside them.
# Biological target: Scavenger receptor class B member 1 (Mus musculus) (UniProt Q61009)
# Assay: activators of SR-BI-mediated HDL uptake, dose response, cell-based, ldlA[mSR-BI] CHO, DiI fluorescence, cherry-pick (AID 602191);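 note: cell fluorescence from internalized DiI-labeled HDL after washing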;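 for AC40: potency of activators raising HDL uptake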;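 for activation (HDL uptake increase): 0% = median of DMSO wells and 100% = twice the DMSO signal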
# Conditions: ldlA[mSR-BI] CHO cells, 3 h
# Scavenger receptor class B member 1 (Mus musculus), sequence (Q61009 whole entry, looked up): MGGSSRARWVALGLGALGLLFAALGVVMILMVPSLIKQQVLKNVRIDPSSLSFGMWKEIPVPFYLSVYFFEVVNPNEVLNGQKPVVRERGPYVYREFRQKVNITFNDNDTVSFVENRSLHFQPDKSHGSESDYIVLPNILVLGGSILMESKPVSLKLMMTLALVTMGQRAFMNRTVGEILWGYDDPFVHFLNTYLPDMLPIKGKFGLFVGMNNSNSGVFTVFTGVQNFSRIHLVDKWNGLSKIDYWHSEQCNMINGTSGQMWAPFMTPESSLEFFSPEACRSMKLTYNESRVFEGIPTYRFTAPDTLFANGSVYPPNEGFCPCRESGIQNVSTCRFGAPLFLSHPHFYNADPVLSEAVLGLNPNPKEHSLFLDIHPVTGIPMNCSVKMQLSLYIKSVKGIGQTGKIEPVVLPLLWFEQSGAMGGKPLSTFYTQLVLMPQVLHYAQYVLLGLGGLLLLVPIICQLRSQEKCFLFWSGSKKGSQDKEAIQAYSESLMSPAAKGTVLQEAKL
row,Structure (SMILES),AC40
1,COCCNC(=O)c1onc(CSc2cccc(C)c2)c1C(=O)O,> 35 µM (inactive)
2,CC(C)NC(=O)C1(O)c2ccccc2NC(=O)N1c1ccc(Cl)c(Cl)c1 (configuration not stated),> 35 µM (inactive)

# Continued, values first:
row,AC40,Structure (SMILES)
1,> 35 µM (inactive),COc1ccccc1OCCc1nnc(N)s1
2,> 35 µM (inactive),FC(F)(F)c1ccc(C2[C@H]3CN(Cc4cccnc4)[C@H](c4ccccc4)C34CC2(c2cccnc2)C4)cc1 (some centres not stated)
3,> 35 µM (inactive),COc1ccc(CC(=O)N(C)Cc2ccc(C(C)(C)C)cc2)cc1S(=O)(=O)N1CCOCC1
4,34.6 µM,C[C@H](CO)N1C[C@H](C)[C@@H](CN(C)S(=O)(=O)c2ccccc2)Oc2ccc(NC(=O)Nc3ccc(C(F)(F)F)cc3)cc2C1=O
5,31.1 µM,C[C@@H]1CN([C@@H](C)CO)C(=O)Cc2cc(NC(=O)Nc3ccc(C(F)(F)F)cc3)ccc2O[C@@H]1CN(C)S(=O)(=O)c1ccc(Cl)cc1

# Same assay, conditions: ldlA[mSR-BI] CHO cells, 3 h, at 11 µM (top of the series)
row,Structure (SMILES),activation (HDL uptake increase)
1,CC(C)C[C@@H](CN1CCCC1CN1C(=S)NC[C@@H]1Cc1ccc(O)cc1)N1C[C@H](Cc2ccc(O)cc2)N(CC2CCCCC2)C1=S (some centres not stated),-10.2% (inactive)

# Same assay, conditions: ldlA[mSR-BI] CHO cells, 3 h, at 35 µM (top of the series)
row,Structure (SMILES),activation (HDL uptake increase)
1,CCOC(=O)N1CCC(NC(=S)Nc2ccc3nc(N4CCN(C)CC4)cc(C)c3c2)CC1,-25.6% (inactive)
2,COc1ccc(NC(=O)C(NC(=O)Cc2cccs2)c2ccc(C)cc2)cc1 (configuration not stated),2.03% (inactive)
3,CC(C)(C)c1ccccc1NC(=O)CN1C(=O)NC2(CCCCCC2)C1=O,-12.4% (inactive)
4,CCOC(=O)[C@H]1[C@H]2COc3ccccc3[C@@H]2N2C(=O)CN(Cc3ccccc3)C(=O)[C@@]12C,-9.27% (inactive)
5,CCOC(CNC(=O)C1CCN(S(=O)(=O)c2ccc3nc4c(c(C(=O)O)c3c2)CCCCC4)CC1)OCC,5.08% (inactive)
6,COc1ccc(C(=O)N2CCNC(=O)C2)cc1S(=O)(=O)Nc1ccc(Br)cc1,-3.81% (inactive)
7,CC(C)C[C@H](NC(=O)c1nc[nH]c1C(=O)NC1CCN(C(=O)OC(C)(C)C)CC1)C(=O)OC(C)(C)C,-3.21% (inactive)
8,O=C(O)CCc1nnc(SCC(=O)Nc2cccc(C(F)(F)F)c2)[nH]c1=O,-1.57% (inactive)
9,COCCCNC(=O)C1CCC(CNS(=O)(=O)c2ccc3c(c2)N(C(C)=O)CCO3)CC1 (configuration not stated),7.18% (inactive)
10,Cc1ccc(NC(=O)c2nc[nH]c2C(=O)NCCN(CCNC(=O)c2[nH]cnc2C(=O)Nc2ccc(C)cc2)CCNC(=O)c2[nH]cnc2C(=O)Nc2ccc(C)cc2)cc1,8.14% (inactive)
11,O=C(COC(=O)C1CCCCC1)Nc1cccc(Br)c1,-5.26% (inactive)
12,O=C(CSc1nnc(CCCOc2ccc(Cl)cc2Cl)o1)Nc1ccc(C(=O)O)cc1,-4.13% (inactive)
13,CN(c1cccc(NC(=O)CN(c2ccc(C34CC5CC(CC(C5)C3)C4)cc2)S(C)(=O)=O)c1)S(C)(=O)=O,17.6% (inactive)
14,O=C(CN1CCN(S(=O)(=O)c2ccc(Cl)s2)CC1)NCc1ccc(Cl)cc1,-4.32% (inactive)
15,COc1ccc2oc(C(=O)OCC(=O)Nc3ccc(C(=O)N(C)C)cc3)c(C)c2c1,-13.1% (inactive)
16,CCCCn1c(=N)n(CCOc2ccc(C)cc2)c2ccccc21,-6.96% (inactive)
17,CCN1CCN(C(=O)C2CCC(=O)N(Cc3cccc(C(F)(F)F)c3)C2)CC1 (configuration not stated),-0.502% (inactive)
18,Cc1ccc(S(=O)(=O)N(CCC(=O)NCC(c2ccccc2)N(C)C)c2ccccc2)cc1 (configuration not stated),-5.72% (inactive)
19,O=C(COC(=O)c1ccco1)c1ccc(S(=O)(=O)N2CCCCC2)cc1,-16.4% (inactive)
20,CC[C@]12c3[nH]c4cc(-c5ccco5)ccc4c3CCN1C(=O)[C@@H](CC(=O)NC(C)(C)C)C[C@@H]2C(=O)N1CCN(C(=O)c2ccco2)CC1,-20.6% (inactive)
21,Cc1ccc(CS(=O)Cc2ccc(C(=O)NCc3ccccc3)o2)cc1 (configuration not stated),4.99% (inactive)
22,Cc1c(NC(=O)c2ccc(Br)o2)cccc1C(=O)O,5.98% (inactive)
23,O=C(CN1C(=O)NC2(CCCC2)C1=O)Nc1ccc(Cl)c(C(F)(F)F)c1,-11.2% (inactive)
24,O=C(C1CCC(=O)N(C2CCCC2)C1)N1CCN(Cc2cccc(Cl)c2)CC1 (configuration not stated),-5.02% (inactive)
25,CC(=O)N1CCN(C(=O)c2ccc(-n3c(C)ccc3C)cc2)CC1,-10.8% (inactive)
26,CCOC(=O)C1CCCN(C(=O)c2cc(S(=O)(=O)N3CCCCCC3)ccc2OC)C1 (configuration not stated),-9.78% (inactive)
27,O=C1CCCCN1CCC(=O)N1CCCC(Nc2ccccc2)C1 (configuration not stated),4.76% (inactive)
28,CSCCC(NC(=O)c1ccco1)C(=O)NC1CCC(C)CC1 (configuration not stated),-3.23% (inactive)
29,O=C(CCC(=O)N1CCOc2ccc(Cl)cc21)NCCCN1CCN(Cc2ccccc2)CC1,4.6% (inactive)
30,C[C@]12C[C@H](O)[C@H]3[C@@H](CCC4=CC(=O)CC[C@@]43C)[C@@H]1CC[C@@H]2C(=O)CO,6.28% (inactive)

# Continued, values first:
row,activation (HDL uptake increase),Structure (SMILES)
1,3.23% (inactive),COCCNC(=O)C1(C)C=CC2(CCCCC2)N1C(=O)c1ccccc1 (configuration not stated)
2,9.34% (inactive),CCN1CCN(C(=O)CCc2nc3ccccc3c(=O)[nH]2)CC1
3,-5.38% (inactive),COc1ccccc1C(=O)NC(=O)COC(=O)c1cccc(NC(C)=O)c1
4,-9.62% (inactive),CCc1nn(CC(=O)N2CCN(CC)CC2)c(=O)c2cccn12
5,0.923% (inactive),Clc1ccc2nc(CN3CCCCCC3)cn2c1
6,5.39% (inactive),Cc1cccc(C)c1NC(=O)N1C2CCCC1CC(NC(=O)C(C)(C)C)C2 (configuration not stated)
7,6.32% (inactive),CCc1cccc(N(C(=O)c2csnn2)C(C(=O)NC2CCCC2)c2cccnc2)c1 (configuration not stated)
8,-3.3% (inactive),COc1ccc(CCNS(=O)(=O)c2cn(C)c(=O)n(C)c2=O)cc1OC
9,-9.51% (inactive),O=C(CCN1C(=O)c2ccccc2C1=O)C1=NN[C@@H]2C(=O)N(c3cccc(F)c3)C(=O)[C@H]12
10,-0.452% (inactive),O=C1CCC(C(=O)N2CCCCCCC2)CN1Cc1cccc(C(F)(F)F)c1 (configuration not stated)
11,-17.4% (inactive),CCCCNC(=O)CCCCC(=O)N/N=C/c1cccc(Cl)c1
12,-7.43% (inactive),CC(C)=C1C2CCC1C(C(=O)NCCc1ccccc1)C2C(=O)O (configuration not stated)
13,-4.42% (inactive),CC1CCCC(NC(=O)CSc2nncs2)C1C (configuration not stated)
14,-2.13% (inactive),Cc1cc(OCC(=O)OCC(=O)NC2CCCCC2C)ccc1Cl (configuration not stated)
15,-6.79% (inactive),CCOc1cc(N2CCOCC2)c(OCC)cc1NC(=O)CSc1cccc[n+]1[O-]
16,9.71% (inactive),COc1ccccc1N1C(=O)CCC1(C#N)c1ccc(Br)cc1 (configuration not stated)
17,-4.95% (inactive),NNC(=O)Cn1nc(Cc2ccccc2)n(N)c1=O
18,-3.98% (inactive),CCOC(=O)C1CCCN(C(=S)Nc2cccc(Cl)c2C)C1 (configuration not stated)
19,12% (inactive),O=C(Cn1nc(-c2ccccc2)ccc1=O)Nc1ccc(-n2cnnn2)cc1
20,5.97% (inactive),"CC[C@H](C)[C@@H]1NC(=O)[C@H]([C@@H](C)CC)NC(=O)[C@@H](CC(C)C)NC(=O)[C@H](Cc2ccccc2)NC(=O)[C@H](Cc2ccccc2)NC(=O)[C@@H]2CCCN2C(=O)[C@@H]2CCCN2C(=O)[C@H](C(C)C)NC(=O)[C@H](CC(C)C)NC1=O (HELM PEPTIDE1{F.F.[dL].I.I.L.V.P.P}$PEPTIDE1,PEPTIDE1,1:R1-9:R2$$$V2.0)"

row,activation (HDL uptake increase),Structure (SMILES)
1,-10.4% (inactive),CC(C)Cc1cc(C(=O)NCc2ccco2)no1
2,47.8% (inactive),C=CCC[C@@H](Cc1ccc(F)cc1)C(=O)OC[C@@H](Cc1c[nH]c2ccccc12)NC(=O)[C@@H](CC=C)CC(=O)N[C@@H](CO)Cc1ccccc1
3,6.14% (inactive),Cc1cccc(N2C(=O)N3[C@H](c4ccc(Br)cc4)[C@@H]4C(=O)N(C(C)(C)C)C(=O)[C@@H]4[C@]3(C)C2=O)c1
4,-10.7% (inactive),Cn1nnnc1SCCNC(=O)C1CCC(=O)N(Cc2ccccc2F)C1 (configuration not stated)
5,7.58% (inactive),CCN1C(=O)C(CC(=O)NC2CCCCC2)N(CC)C1=O (configuration not stated)
6,-0.198% (inactive),C[C@@H]1CN([C@H](C)CO)C(=O)c2cc(NC(=O)Nc3ccc(C(F)(F)F)cc3)ccc2O[C@H]1CN(C)Cc1ccc(Cl)c(Cl)c1
7,-11.9% (inactive),Cc1ccc(N(CC(=O)N2CC(=O)Nc3ccccc32)S(=O)(=O)c2ccc3c(c2)OCCO3)cc1
8,-12.6% (inactive),COCCn1c(=O)[nH]c2cc(C(=O)N3CCN(c4ccccc4OC)CC3)ccc2c1=O
9,-1.31% (inactive),COc1ccc(OC)c(S(=O)(=O)N2CCN(C(=O)CCc3ccccc3)CC2)c1
10,-0.792% (inactive),COc1cccc(C(=O)COC(=O)CCC(=O)c2ccccc2)c1
11,-14% (inactive),CCCCC/C=C\C[C@H](O)/C=C/c1cccc(C[C@H](O)CCCCO)n1
12,9.53% (inactive),Cc1ccc(C(=O)NCCCN2CCOCC2)cc1S(=O)(=O)N1CCCCC1
13,10.3% (inactive),Nc1ncnc2c1ncn2[C@@H]1O[C@H](CNCc2cccn2-c2nccs2)[C@@H](O)[C@H]1O
14,-10.8% (inactive),COc1ccc(-n2nc3c(c2NC(=O)c2ccc(S(=O)(=O)N4CCOCC4)cc2)CS(=O)C3)cc1 (configuration not stated)
15,-11.4% (inactive),COc1cccc(N2CCN(c3ccc4nnc(CCC(=O)Nc5cc(C)ccn5)n4n3)CC2)c1
16,-5.92% (inactive),CN1CCN(S(=O)(=O)c2cccc(C(=O)NC3(C)CCS(=O)(=O)C3)c2)CC1 (configuration not stated)
17,-6.34% (inactive),COc1ccc(C(=O)C2CCCN(C(=O)/C=C/c3ccccn3)C2)c(C)c1 (configuration not stated)
18,2.09% (inactive),O=C(c1ccc(CS(=O)Cc2ccccc2Cl)o1)N1CCN(C2CCCCC2)CC1 (configuration not stated)
19,-8.06% (inactive),Cc1c(C(=O)N2CCC(C(N)=O)CC2)sc(N)c1C#N
